From patent US10464911B2, “1,3,4-oxadiazole sulfamide derivative compounds as histone deacetylase 6 inhibitor, and the pharmaceutical composition comprising the same” (Chong Kun Dang Pharmaceutical Corp., priority 2015, dated 2019)
Counter-ions that a name gives are not always drawn.

Target: human recombinant HDAC6 (Homo sapiens (Human), UniProt Q9UBN7)
Experiment: HDAC6 enzyme activity inhibition assay (HDAC Fluorimetric Drug Discovery Kit)
Assay type: biochemical
Settings: for HDAC6 selectivity (fold): HDAC6 versus HDAC1; for IC50: human recombinant HDAC6, same protocol as HDAC1 test
Procedure: In order to examine the HDAC6 selectivity of the compounds of formula I of the present invention by HDAC1 and HDAC6 enzymatic activity inhibition assays, an experiment was performed using a conventional substance as a control.
HDAC enzyme activity was measured using a HDAC Fluorimetric Drug Discovery Kit (BML-AK511, 516, Enzo Life Science). For the HDAC1 enzyme activity test, human recombinant HDAC1 (BML-SE456) was used as an enzyme source, and Fluor de Lys®-“SIRT1 (BNL-KI177) was used as a substrate. A 5-fold dilution of the compound was seeded into a 96-well plate, and then 0.3 μg of the enzyme and 10 μM of the substrate were added to each well of the plate and allowed to react at 30 for 60 minutes. Then, Fluor de Lys®-Developer II (BML-KI176) was added thereto and allowed to react for 30 minutes, after which the fluorescence value (Ex 360, Em 460) was measured using a multi-plate reader (Flexstation 3, Molecular Device). The HDAC6 enzyme was tested using human recombinant HDAC6 (382180) (Calbiochem) according to the same protocol as the HDAC1 enzyme activity test method. Based on the resulting values, each IC50 value was calculated using GraphPad Prism4.0 program.

Chain of human recombinant HDAC6 (Q9UBN7 whole entry): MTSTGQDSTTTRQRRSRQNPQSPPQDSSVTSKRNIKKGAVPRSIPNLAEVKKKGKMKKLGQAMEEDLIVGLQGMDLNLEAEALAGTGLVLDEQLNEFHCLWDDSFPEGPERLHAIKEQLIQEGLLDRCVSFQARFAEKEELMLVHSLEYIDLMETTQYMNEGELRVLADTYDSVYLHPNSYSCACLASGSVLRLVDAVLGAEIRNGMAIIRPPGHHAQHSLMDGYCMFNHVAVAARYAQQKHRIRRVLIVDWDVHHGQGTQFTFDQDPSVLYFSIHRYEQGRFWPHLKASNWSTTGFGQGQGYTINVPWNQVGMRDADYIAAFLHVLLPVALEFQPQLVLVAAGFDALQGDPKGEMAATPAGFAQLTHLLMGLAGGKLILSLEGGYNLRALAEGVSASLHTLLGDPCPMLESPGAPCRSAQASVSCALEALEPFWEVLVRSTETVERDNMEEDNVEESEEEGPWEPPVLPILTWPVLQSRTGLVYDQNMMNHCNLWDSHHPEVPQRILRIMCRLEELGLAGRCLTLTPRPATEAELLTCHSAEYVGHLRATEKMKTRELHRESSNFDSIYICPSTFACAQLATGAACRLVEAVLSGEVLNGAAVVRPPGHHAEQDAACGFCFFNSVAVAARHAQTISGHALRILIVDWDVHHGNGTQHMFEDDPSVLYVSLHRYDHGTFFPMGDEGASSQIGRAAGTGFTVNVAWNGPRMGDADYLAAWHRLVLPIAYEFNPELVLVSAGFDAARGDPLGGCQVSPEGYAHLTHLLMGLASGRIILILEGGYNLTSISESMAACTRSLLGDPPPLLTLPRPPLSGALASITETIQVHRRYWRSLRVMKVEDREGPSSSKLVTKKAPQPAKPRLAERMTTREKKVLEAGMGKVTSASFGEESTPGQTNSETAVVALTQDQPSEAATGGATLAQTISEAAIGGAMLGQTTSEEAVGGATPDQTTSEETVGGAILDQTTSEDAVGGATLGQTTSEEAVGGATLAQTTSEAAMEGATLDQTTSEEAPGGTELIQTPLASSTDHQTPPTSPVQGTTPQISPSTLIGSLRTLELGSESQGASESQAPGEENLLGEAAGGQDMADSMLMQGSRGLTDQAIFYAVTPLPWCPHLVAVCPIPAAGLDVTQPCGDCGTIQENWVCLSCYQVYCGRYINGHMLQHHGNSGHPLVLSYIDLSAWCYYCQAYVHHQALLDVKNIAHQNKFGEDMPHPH

| Compound | HDAC6 selectivity (fold) | IC50 |
| --- | --- | --- |
| O=S(=O)(N1CCNCC1)N(Cc1ccc(-c2nnc(C(F)F)o2)cc1F)c1cccnc1 [Compound 11317, N-(4-(5-(difluoromethyl)-1,3,4-oxadiazol-2-yl)-2-fluorobenzyl)-N-(pyridin-3-yl)piperazine-1-sulfonamide Dihydrochloride] | 1234 fold | 81 nM |
| O=S(=O)(N1CCOCC1)N(Cc1ccc(-c2nnc(C(F)(F)F)o2)cc1)c1ccc(F)cc1 [Compound 11198, N-(4-fluorophenyl)-N-(4-(5-(trifluoromethyl)-1,3,4-oxadiazol-2-yl)benzyl)morpholine-4-sulfonamide] | 738 fold | 136 nM |
| O=S(=O)(N1CCN(C2COC2)CC1)N(Cc1ccc(-c2nnc(C(F)F)o2)cn1)c1ccc(F)c(Cl)c1 [Compound 11672, N-(3-chloro-4-fluorophenyl)-N-((5-(5-(difluoromethyl)-1,3,4-oxadiazol-2-yl)pyridin-2-yl)methyl)-4-(oxetan-3-yl)piperazine-1-sulfonamide] | 7142 fold | 14 nM |
| Cl.O=S(=O)(N1CCNCC1)N(Cc1ccc(-c2nnc(C(F)F)o2)cc1F)c1cccc(F)c1 [Compound 11313, N-(4-(5-(difluoromethyl)-1,3,4-oxadiazol-2-yl)-2-fluorobenzyl)-N-(3-fluorophenyl)piperazine-1-sulfonamide Hydrochloride] | 4246 fold | 24 nM |
| CC(=O)N1CCN(S(=O)(=O)N(Cc2ccc(-c3nnc(C(F)(F)F)o3)cc2F)c2ccccc2)CC1 [Compound 11294, 4-acetyl-N-(2-fluoro-4-(5-(trifluoromethyl)-1,3,4-oxadiazol-2-yl)benzyl)-N-phenylpiperazine-1-sulfonamide] | 1411 fold | 71 nM |
| CCN1CCN(S(=O)(=O)N(Cc2ccc(-c3nnc(C(F)(F)F)o3)cc2F)c2ccccc2)CC1 [Compound 11299, 4-ethyl-N-(2-fluoro-4-(5-(trifluoromethyl)-1,3,4-oxadiazol-2-yl)benzyl)-N-phenylpiperazine-1-sulfonamide] | 1169 fold | 86 nM |
| Cc1cccc(N(Cc2ccc(-c3nnc(C(F)F)o3)cn2)S(=O)(=O)N2CCN(C3COC3)[C@H](C)C2)c1 [Compound 11824, (R)—N-((5-(5-(difluoromethyl)-1,3,4-oxadiazol-2-yl)pyridin-2-yl)methyl)-3-methyl-4-(oxetan-3-yl)-N-(m-tolyl)piperazine-1-sulfonamide] | 2000 fold | 50 nM |
| CC(C)N1CCN(S(=O)(=O)N(Cc2ccc(-c3nnc(C(F)F)o3)cc2)c2ccccc2)CC1 [Compound 11673, N-(4-(5-(difluoromethyl)-1,3,4-oxadiazol-2-yl)benzyl)-4-isopropyl-N-phenylpiperazine-1-sulfonamide] | 1351 fold | 74 nM |
| CC(C)N1CCN(S(=O)(=O)N(Cc2ccc(-c3nnc(C(F)F)o3)cc2)c2ccc(F)c(Cl)c2)CC1 [Compound 11651, N-(3-chloro-4-fluorophenyl)-N-(4-(5-(difluoromethyl)-1,3,4-oxadiazol-2-yl)benzyl)-4-iso propylpiperazine-1-sulfonamide] | 207 fold | 481 nM |
| CN1CCN(S(=O)(=O)N(Cc2ccc(-c3nnc(C(F)(F)F)o3)cc2F)c2ccccc2)CC1 [Compound 11298, N-(2-fluoro-4-(5-(trifluoromethyl)-1,3,4-oxadiazol-2-yl)benzyl)-4-methyl-N-phenylpiperazine-1-sulfonamide] | 1333 fold | 75 nM |
| CC(C)N1CCN(S(=O)(=O)N(Cc2ccc(-c3nnc(C(F)F)o3)cc2F)c2ccccc2)CC1 [Compound 11308, N-(4-(5-(difluoromethyl)-1,3,4-oxadiazol-2-yl)-2-fluorobenzyl)-4-isopropyl-N-phenylpiperazine-1-sulfonamide] | 2168 fold | 46 nM |
| CN(CCN1CCN(S(C)(=O)=O)CC1)S(=O)(=O)N(Cc1ccc(-c2nnc(C(F)F)o2)cc1)c1ccccc1 [Compound 11714, 2-((4-(((N-methyl-N-(2-(4-(methylsulfonyl)piperazin-1-yl)ethyl)sulfamoyl)(phenyl)amino)methyl))phenyl)-5-(difluoromethyl)-1,3,4-oxadiazole] | 616 fold | 162 nM |
| O=S(=O)(N1CCN(C2COC2)CC1)N(Cc1ccc(-c2nnc(C(F)F)o2)cc1)c1ccccc1 [Compound 11575, N-(4-(5-(difluoromethyl)-1,3,4-oxadiazol-2-yl)benzyl)-4-(oxetan-3-yl)-N-phenylpiperazine-1-sulfonamide] | 2083 fold | 48 nM |
| CC(=O)N1CCN(S(=O)(=O)N(Cc2ccc(-c3nnc(C(F)F)o3)cc2F)c2cccnc2)CC1 [Compound 11318, 4-acetyl-N-(4-(5-(difluoromethyl)-1,3,4-oxadiazol-2-yl)-2-fluorobenzyl)-N-(pyridin-3-yl)piperazine-1-sulfonamide] | 2299 fold | 43 nM |
| C[C@@H]1CN(S(=O)(=O)N(Cc2ccc(-c3nnc(C(F)F)o3)cn2)c2cccc(Cl)c2)CCN1C1COC1 [Compound 11826, (R)—N-(3-chlorophenyl)-N-((5-(5-(difluoromethyl)-1,3,4-oxadiazol-2-yl)pyridin-2-yl)methyl)-3-methyl-4-(oxetan-3-yl)piperazine-1-sulfonamide] | 2439 fold | 41 nM |
| CC(=O)N1CCN(S(=O)(=O)N(Cc2ccc(-c3nnc(C(F)(F)F)o3)cc2F)c2cccnc2)CC1 [Compound 11322, 4-acetyl-N-(2-fluoro-4-(5-(trifluoromethyl)-1,3,4-oxadiazol-2-yl)benzyl)-N-(pyridin-3-yl)piperazine-1-sulfonamide] | 1507 fold | 66 nM |
| O=S(=O)(N1CCN(C2CCC2)CC1)N(Cc1ccc(-c2nnc(C(F)F)o2)cc1)c1ccc(F)c(Cl)c1 [Compound 11652, N-(3-chloro-4-fluorophenyl)-4-cyclobutyl-N-(4-(5-(difluoromethyl)-1,3,4-oxadiazol-2-yl)benzyl)piperazine-1-sulfonamide] | 422 fold | 237 nM |
| C[C@@H]1CN(S(=O)(=O)N(Cc2ccc(-c3nnc(C(F)F)o3)cc2)c2ccccc2)C[C@H](C)N1C(=O)C(F)F [Compound 11644, (3S,5R)-4-(2,2-difluoroacetyl)-N-(4-(5-(difluoromethyl)-1,3,4-oxadiazol-2-yl)benzyl)-3,5-dimethyl-N-phenylpiperazine-1-sulfonamide] | 770 fold | 130 nM |
| CN1CCN(S(=O)(=O)N(Cc2ccc(-c3nnc(C(F)(F)F)o3)cc2F)c2cccc(F)c2)CC1 [Compound 11312, N-(2-fluoro-4-(5-(trifluoromethyl)-1,3,4-oxadiazol-2-yl)benzyl)-N-(3-fluorophenyl)-4-methylpiperazine-1-sulfonamide] | 1371 fold | 73 nM |
| CCC(=O)N1CCN(S(=O)(=O)N(Cc2ccc(-c3nnc(C(F)F)o3)cc2F)c2ccccc2)CC1 [Compound 11303, N-(4-(5-(difluoromethyl)-1,3,4-oxadiazol-2-yl)-2-fluorobenzyl)-N-phenyl-4-propionylpiperazine-1-sulfonamide] | 3187 fold | 31 nM |
| CCN1CCN(S(=O)(=O)N(Cc2ccc(-c3nnc(C(F)F)o3)cc2F)c2ccccc2)CC1 [Compound 11307, N-(4-(5-(difluoromethyl)-1,3,4-oxadiazol-2-yl)-2-fluorobenzyl)-4-ethyl-N-phenylpiperazine-1-sulfonamide] | 2366 fold | 42 nM |
| CN(CCN1CCN(C2COC2)CC1)S(=O)(=O)N(Cc1ccc(-c2nnc(C(F)F)o2)cc1)c1ccccc1 [Compound 11704, 2-((4-(((N-methyl-N-(2-(4-(oxetan-3-yl)piperazin-1-yl)ethyl)sulfamoyl)(phenyl)amino)methyl))phenyl)-5-(difluoromethyl)-1,3,4-oxadiazole] | 429 fold | 233 nM |
| CCC(=O)N1CCN(S(=O)(=O)N(Cc2ccc(-c3nnc(C(F)(F)F)o3)cc2F)c2ccccc2)CC1 [Compound 11295, N-(2-fluoro-4-(5-(trifluoromethyl)-1,3,4-oxadiazol-2-yl)benzyl)-N-phenyl-4-propionylpiperazine-1-sulfonamide] | 751 fold | 133 nM |
| C[C@H]1CN(S(=O)(=O)N(Cc2ccc(-c3nnc(C(F)F)o3)cn2)c2cccc(Cl)c2)CCN1C1COC1 [Compound 11830, (S)—N-(3-chlorophenyl)-N-((5-(5-(difluoromethyl)-1,3,4-oxadiazol-2-yl)pyridin-2-yl)methyl)-3-methyl-4-(oxetan-3-yl)piperazine-1-sulfonamide] | 5882 fold | 17 nM |
| CS(=O)(=O)N1CCN(S(=O)(=O)N(Cc2ccc(-c3nnc(C(F)F)o3)cc2F)c2cccc(F)c2)CC1 [Compound 11314, N-(4-(5-(difluoromethyl)-1,3,4-oxadiazol-2-yl)-2-fluorobenzyl)-N-(3-fluorophenyl)-4-(methylsulfonyl)piperazine-1-sulfonamide] | 3061 fold | 33 nM |
